Laboratory results from patent publication US20030181401A1, “Insulin secretion promoter” (KYOWA HAKKO KOGYO CO., LTD., priority 2002, published 2003).
Where “and” joins values, the source holds several entries; their conditions need not be identical. Equal entries are not always repeated.

Key:
Type in all cases: in vivo
ICR mice [1] = experiment: Test Example 6: serum glucose after intravenous saccharide with simultaneous oral glucose loading
Protocol: (§1) Groups of male 9-week-old ICR mice (Japan SLC, Inc.) each consisting of 7 mice were fed CE-2 (Clea Japan, Inc.) for one week, so as to accustom the animals to the environment. Then, the mice were fasted for 18 hours.
(§2) An aqueous 10% solution of 2′-FL or NeuAc was intravenously administered to the mice to 500 mg (saccharide)/kg body weight, while an aqueous 40% glucose solution was orally administered simultaneously to 2 g (glucose)/kg body weight, to the mice. To the control group, physiological saline was administered intravenously, while glucose was orally administered simultaneously to 2 g/kg body weight. Zero minute and 30 minutes after glucose loading, blood was taken from a tail vein. […] Blood was centrifuged (4° C., 10000 rpm, 10 minutes), to obtain serum.
Furthermore, the glucose concentration in the serum recovered was also assayed. The glucose concentration was assayed, using Glucose CII-TEST WAKO (WAKO Pure Chemical Industries, Ltd.). 2 μl of the recovered serum was placed in a 96-well plate, followed by addition of 200 μl of the chromogenic solution attached to the kit, for incubation at 37° C. for 10 minutes. After incubation, the absorbance at 490 nm was assayed with a plate reader. Herein, a standard curve was prepared by using aqueous 500 mg/dl glucose solution as the standard solution to dilute the standard solution appropriately for the same reaction as for the serum, and plotting the relation between the concentration and the absorbance (490 nm). Based on the prepared standard curve and the absorbance from the reaction with the serum, the glucose concentration in the serum was determined.

db/db mice = experiment: Test Example 4: serum insulin in glucose tolerance test after 7-day oral dosing of saccharides
Protocol: Groups of male 9-week-old db/db mice (Clea Japan, Inc.) each consisting of 6 mice were fed CE-2 (Clea Japan, Inc.) for one week, so as to accustom the animals to the environment.
After acclimation, individual aqueous 10% solutions of 3′-sialyllactose (abbreviated as “3′-SL” hereinafter), 6′-sialylactose (abbreviated as “6′-SL”) and 2′-FL were orally administered to the mice at 200 mg (saccharide)/kg body weight in the morning and at 300 mg (saccharide)/kg body weight in the evening. The both volume of saline was administered to the control group. The individual aqueous saccharide solutions and saline were both dosed daily to the mice for 7 days. During the dosing period, CE-2 was given together with drinking water ad libitum.
After 18-hour starvation from the final dosing on day 7, an aqueous 40% glucose solution was orally administered to 2 g (glucose)/kg body weight to the mice, to perform glucose tolerance test. Zero minute and 30 minutes after glucose loading, blood was taken from a tail vein. […] Blood was centrifuged (4° C., 10000 rpm, 10 minutes), to obtain serum.
Insulin in the serum recovered was assayed by enzyme immunoassay using Lebis Insulin kit (for rats-T) (Shibayagi, Co., Ltd.) in the same manner as in the Test Example 1.

[2] = tested on: STZ-induced diabetic rats (Wistar); experiment: Test Example 9: serum insulin in glucose tolerance test, Type I diabetes mellitus model
Protocol: Male 7-week-old Wistar rats (Japan SLC, Inc.) were fed CE-2 (Clea Japan, Inc.) for one week, so as to accustom the rats to the environment.
After 18-hour starvation of the accustomed rats, […] of 50 mM citrate buffer, pH 4.5containing 15 mg of streptozotocin (WAKO Pure Chemical Industries, Inc.; abbreviated as “STZ” hereinafter) was prepared and administered to 25 mg (STZ)/kg body weight from their tail vein. Five days after the STZ administration, the rats were fasted for 18 hours. Blood was taken from puncture in the tail vein to assay blood glucose with a simple-type blood glucose assay apparatus Medisafe Reader GR-101 (Terumo, Co., Ltd.), to select 5 rats (Nos. 1, 3, 4, 5, 8) at mild state of diabetes mellitus with a blood glucose level of 200 mg/dl or less.
An aqueous 2% solution of 2′-fucosyllactose was prepared and administered to the rat No. 1 from the tail vein to 50 mg/kg body weight on a 2′-FL dose basis. 0.9% physiological saline was administered to rats Nos. 3, 4, 5 and 8. […] Zero minute and 30, 60, 120, and 240 minutes after glucose loading, blood was taken from a tail vein, to assay blood glucose with Medisafe Reader GR-101 and collect the serum.
12 days after the STZ dosing, the rats were fasted for 18 hours. […] Zero minute and 30, 60, 120, and 240 minutes after glucose loading, blood was taken from a tail vein, to assay blood glucose with Medisafe Reader GR-101 and collect the serum.
Insulin in the serum was assayed by enzyme immunoassay using Morinaga ultra-sensitive rat insulin assay kit (Morinaga Biochemical Research Institute, Co., Ltd.) in the same manner as in Test Example 8. Additionally, a standard curve was prepared by diluting […] of the standard insulin (rat) attached to the kit with 100 μl of saline to use the resulting 25.6 ng/ml insulin solution as the standard solution, diluting the standard solution appropriately with the diluent attached to the kit for the same reaction as for the serum, and plotting the relation between the concentration and the absorbance at the principal wave length of 450 nm and at the sub wave length of 655 nm. […]

ICR mice [3] = experiment: Test Example 6: serum insulin after intravenous saccharide with simultaneous oral glucose loading
Protocol: as §1, §2
Insulin in the serum recovered was assayed by enzyme immunoassay using Lebis Insulin kit (for mice-T) (Shibayagi, Co., Ltd.) in the same manner as in the Test Example 2.

[4] = ICR mice fasted 18 hours, 500 mg/kg intravenous with simultaneous glucose 2 g/kg oral, 30 minutes, mean ± SD
[5] = ICR mice fasted 18 hours, 500 mg/kg intravenous with simultaneous glucose 2 g/kg oral, 120 minutes, mean ± SD

Substance: 2′-fucosyllactose [2′-FL]
- Serum glucose concentration after glucose loading, 30 minutes (ICR mice [1]; [4]): 331.4 ± 68.6 mg/dL
- Serum glucose concentration after glucose loading, 120 minutes (ICR mice [1]; [5]): 169.2 ± 29.5 mg/dL
- Serum glucose concentration after glucose loading, Zero minute (ICR mice [1]; ICR mice fasted 18 hours, 500 mg/kg intravenous with simultaneous glucose 2 g/kg oral, zero minute, mean ± SD): 102.4 ± 23.3 mg/dL
- increase of the serum glucose concentration compared with the control group (in words) (ICR mice [1]; ICR mice, intravenous dosing): suppressed
- serum insulin concentration during glucose loading compared with the control group (in words) (db/db mice; continuous daily oral dosing): increased
- Serum insulin concentration after glucose loading, 30 minutes (db/db mice; oral 200 + 300 mg/kg daily, 7 days, glucose 2 g/kg oral, 30 minutes, mean ± SD): 8.3 ± 3.9 ng/mL
- Serum insulin concentration after glucose loading, 120 minutes (db/db mice; oral 200 + 300 mg/kg daily, 7 days, glucose 2 g/kg oral, 120 minutes, mean ± SD): 26.1 ± 12.9 ng/mL
- Serum insulin concentration after glucose loading, Zero minute (db/db mice; oral 200 + 300 mg/kg daily, 7 days, glucose 2 g/kg oral, zero minute, mean ± SD): 6.7 ± 3.3 ng/mL
- serum insulin concentration via glucose loading (in words) ([2]; STZ-induced diabetic rats, glucose loading 2 hours after intravenous dosing): increased
- Serum insulin concentration, 0 minute ([2]; individual STZ rats Nos. 1, 3, 4, 5, 8, 50 mg/kg intravenous two hours before glucose 1 g/kg oral, 0 minute after glucose loading, 50 mg/kg): 125.8 pg/mL and 697.0 pg/mL and 197.4 pg/mL and 180.4 pg/mL and 312.5 pg/mL
- Serum insulin concentration, 30 minutes ([2]; individual STZ rats Nos. 1, 3, 4, 5, 8, 50 mg/kg intravenous two hours before glucose 1 g/kg oral, 30 minutes after glucose loading, 50 mg/kg): 331.1 pg/mL and 586.6 pg/mL and 915.1 pg/mL and 475.5 pg/mL and 148.4 pg/mL
- Serum insulin concentration after glucose loading, 30 minutes (ICR mice [3]; [4]): 192.3 ± 57.4 pg/mL
- Serum insulin concentration after glucose loading, 120 minutes (ICR mice [3]; [5]): 2090.7 ± 533.1 pg/mL
- serum insulin concentration after glucose loading compared with the control group (in words) (ICR mice [3]; ICR mice, intravenous dosing): increased
